Measured values reported in patent US20250073244A1, “CRYSTALLINE FORMS OF PENTAAZA MACROCYCLIC RING COMPLEX” (Galera Labs, LLC, priority 2023, published 2025).

Test: Equilibration with solvents at 25° C.
Description: About 50 mg of drug substance was equilibrated in suitable amount of solvent at 25° C. for 2 weeks with a stirring plate (Table 30). Obtained suspension was filtered. The solid part (wet cake) was investigated by XRPD. When differences were observed, additional investigations were performed (e.g. DSC, TGA. FT-IR, PLM/SEM, etc.).
[…] The solid part (wet cake) was investigated by XRPD. If differences are observed, additional investigation will be performed (e.g. DSC, TGA, HPLC, etc.)

[1] = 2 weeks, Heptane/Acetone, 80/20
[2] = 5 days, protected by N2, Acetone
[3] = 5 days, protected by N2, Heptane
[4] = 5 days, protected by N2, Toluene

Q: For `CCC(=O)[O][Mn][O]C(=O)CC.c1cc2nc(c1)CN[C@H]1CCCC[C@@H]1NCCN[C@H]1CCCC[C@@H]1NC2` [API], which Comments (2 weeks, EtOAc) is on record?
A: Its Comments is “API degradation,”.

Q: What about the purity (2 weeks, EtOAc) of the same compound?
A: Its purity is “purity 75.69%”.

Q: What about the purity (2 weeks, Heptane) of the same compound?
A: Its purity is “Purity 99.02%”.

Q: And the Comments [1]?
A: Its Comments is “API degradation,”.

Q: What about the purity [1] of the same compound?
A: Its purity is “purity 94.83%”.

Q: What about the Comments (2 weeks, Heptane/EtOAc, 80/20) of the same compound?
A: The Comments was “API degradation,”.

Q: And the purity (2 weeks, Heptane/EtOAc, 80/20)?
A: The purity was “purity 92.64%”.

Q: And the Comments (2 weeks, IPAC)?
A: Its Comments is “API degradation,”.

Q: What about the purity (2 weeks, IPAC) of the same compound?
A: The purity was “purity 84.49%”.

Q: What about the Comments (2 weeks, MTBE) of the same compound?
A: Its Comments is “API degradation,”.

Q: What about the purity (2 weeks, MTBE) of the same compound?
A: Its purity is “purity 88.12%”.

Q: And the Comments (2 weeks, MTBE/Acetone, 80/20c)?
A: Its Comments is “API degradation,”.

Q: And the purity (2 weeks, MTBE/Acetone, 80/20c)?
A: The purity was “purity 87.39%”.

Q: And the Comments (2 weeks, MTBE/EIOAc, 80/20)?
A: Its Comments is “API degradation,”.

Q: What about the purity (2 weeks, MTBE/EIOAc, 80/20) of the same compound?
A: Its purity is “purity 89.32%”.

Q: What about the Comments [2] of the same compound?
A: The Comments was “API degradation”.

Q: And the purity [2]?
A: Its purity is 98.41%.

Q: What about the Comments (5 days, protected by N2, EtOAc) of the same compound?
A: The Comments was “API degradation”.

Q: And the purity (5 days, protected by N2, EtOAc)?
A: Its purity is 97.78%.

Q: And the Comments [3]?
A: The Comments was “API degradation”.

Q: What about the purity [3] of the same compound?
A: The purity was 99.85%.

Q: What about the Comments (5 days, protected by N2, IPAC) of the same compound?
A: The Comments was “API degradation”.

Q: And the purity (5 days, protected by N2, IPAC)?
A: Its purity is 98.30%.

Q: And the Comments (5 days, protected by N2, MEK)?
A: Its Comments is “API degradation”.

Q: What about the purity (5 days, protected by N2, MEK) of the same compound?
A: Its purity is 97.52%.

Q: What about the Comments (5 days, protected by N2, MTBE) of the same compound?
A: The Comments was “API degradation”.

Q: What about the purity (5 days, protected by N2, MTBE) of the same compound?
A: Its purity is 98.62%.

Q: And the Comments [4]?
A: Its Comments is “API degradation”.

Q: What about the purity [4] of the same compound?
A: Its purity is 92.88%.
